{
  "source": "patent US8933230B2",
  "about": "“Phosphorus-containing group-substituted quinoline, its preparation process, medical composition containing the compounds and application” (priority 2011, dated 2015)",
  "assay_in_all_cases": "KinomeScan kinase panel",
  "type_in_all_cases": "binding",
  "key": {"MAP3K4": {"biological_target": "T1, MAP3K4 (Homo sapiens, UniProt Q9Y6R4)", "T1 construct": "purchased DiscoveRx Corporation (KinomeScan)", "in_short": "(§1)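 KinomeScan, 442 kinases incl. mutants; cpd 1000 nM; single-concentration inhibition.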"}, "AURKC": {"biological_target": "T2, AURKC (Homo sapiens, UniProt Q9UQB9)", "T2 construct": "purchased DiscoveRx Corporation (KinomeScan)", "in_short": "as §1"}, "[1]": {"biological_target": "T3, RSK3(Kin.Dom.1-N-terminal) (Homo sapiens, UniProt Q15349)", "T3 construct": "Kin.Dom.1; purchased DiscoveRx Corporation (KinomeScan)", "in_short": "as §1"}, "CAMK4": {"biological_target": "T4, CAMK4 (Homo sapiens, UniProt Q16566)", "T4 construct": "purchased DiscoveRx Corporation (KinomeScan)", "in_short": "as §1"}, "[2]": {"biological_target": "T5, ABL1(T315I)-nonphosphorylated (Homo sapiens, UniProt P00519, T315I)", "T5 construct": "purchased DiscoveRx Corporation (KinomeScan)", "in_short": "as §1"}, "[3]": {"biological_target": "T6, ABL1(F317I)-phosphorylated (Homo sapiens, UniProt P00519, F317I)", "T6 construct": "purchased DiscoveRx Corporation (KinomeScan)", "in_short": "as §1"}, "DAPK2": {"biological_target": "T7, DAPK2 (Homo sapiens, UniProt Q9UIK4)", "T7 construct": "purchased DiscoveRx Corporation (KinomeScan)", "in_short": "as §1"}, "[4]": {"biological_target": "T8, RSK4(Kin.Dom.1-N-terminal) (Homo sapiens, UniProt Q9UK32)", "T8 construct": "Kin.Dom.1; purchased DiscoveRx Corporation (KinomeScan)", "in_short": "as §1"}, "EPHA2": {"biological_target": "T9, EPHA2 (Homo sapiens, UniProt P29317)", "T9 construct": "purchased DiscoveRx Corporation (KinomeScan)", "T9 sequence (P29317 24-976)": "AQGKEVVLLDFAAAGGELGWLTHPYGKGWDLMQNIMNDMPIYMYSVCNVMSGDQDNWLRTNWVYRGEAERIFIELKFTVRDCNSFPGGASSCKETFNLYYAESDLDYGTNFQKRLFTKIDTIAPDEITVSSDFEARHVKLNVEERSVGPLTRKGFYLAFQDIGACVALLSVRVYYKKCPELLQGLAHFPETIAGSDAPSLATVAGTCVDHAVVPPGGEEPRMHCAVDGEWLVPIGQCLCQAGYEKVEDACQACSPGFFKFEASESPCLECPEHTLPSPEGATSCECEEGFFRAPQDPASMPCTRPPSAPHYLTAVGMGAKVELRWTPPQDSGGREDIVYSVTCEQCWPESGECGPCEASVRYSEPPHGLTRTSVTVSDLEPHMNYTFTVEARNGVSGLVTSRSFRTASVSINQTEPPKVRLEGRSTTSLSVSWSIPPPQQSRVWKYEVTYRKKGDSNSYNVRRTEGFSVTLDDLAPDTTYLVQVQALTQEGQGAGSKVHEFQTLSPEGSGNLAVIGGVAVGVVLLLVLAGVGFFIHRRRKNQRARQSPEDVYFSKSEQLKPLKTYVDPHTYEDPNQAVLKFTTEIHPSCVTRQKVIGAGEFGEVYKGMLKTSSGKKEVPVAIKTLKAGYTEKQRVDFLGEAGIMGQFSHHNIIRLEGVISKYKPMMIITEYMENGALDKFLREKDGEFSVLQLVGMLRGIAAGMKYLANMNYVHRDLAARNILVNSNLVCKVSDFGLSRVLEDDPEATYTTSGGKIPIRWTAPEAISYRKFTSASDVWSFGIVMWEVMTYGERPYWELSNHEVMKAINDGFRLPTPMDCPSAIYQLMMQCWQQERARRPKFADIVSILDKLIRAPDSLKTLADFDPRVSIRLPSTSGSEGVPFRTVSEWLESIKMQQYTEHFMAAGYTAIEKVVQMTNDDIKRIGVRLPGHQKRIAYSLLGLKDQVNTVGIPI", "in_short": "as §1"}, "FLT4": {"biological_target": "T10, FLT4 (Homo sapiens, UniProt P35916)", "T10 construct": "purchased DiscoveRx Corporation (KinomeScan)", "T10 sequence (P35916 25-1363)": "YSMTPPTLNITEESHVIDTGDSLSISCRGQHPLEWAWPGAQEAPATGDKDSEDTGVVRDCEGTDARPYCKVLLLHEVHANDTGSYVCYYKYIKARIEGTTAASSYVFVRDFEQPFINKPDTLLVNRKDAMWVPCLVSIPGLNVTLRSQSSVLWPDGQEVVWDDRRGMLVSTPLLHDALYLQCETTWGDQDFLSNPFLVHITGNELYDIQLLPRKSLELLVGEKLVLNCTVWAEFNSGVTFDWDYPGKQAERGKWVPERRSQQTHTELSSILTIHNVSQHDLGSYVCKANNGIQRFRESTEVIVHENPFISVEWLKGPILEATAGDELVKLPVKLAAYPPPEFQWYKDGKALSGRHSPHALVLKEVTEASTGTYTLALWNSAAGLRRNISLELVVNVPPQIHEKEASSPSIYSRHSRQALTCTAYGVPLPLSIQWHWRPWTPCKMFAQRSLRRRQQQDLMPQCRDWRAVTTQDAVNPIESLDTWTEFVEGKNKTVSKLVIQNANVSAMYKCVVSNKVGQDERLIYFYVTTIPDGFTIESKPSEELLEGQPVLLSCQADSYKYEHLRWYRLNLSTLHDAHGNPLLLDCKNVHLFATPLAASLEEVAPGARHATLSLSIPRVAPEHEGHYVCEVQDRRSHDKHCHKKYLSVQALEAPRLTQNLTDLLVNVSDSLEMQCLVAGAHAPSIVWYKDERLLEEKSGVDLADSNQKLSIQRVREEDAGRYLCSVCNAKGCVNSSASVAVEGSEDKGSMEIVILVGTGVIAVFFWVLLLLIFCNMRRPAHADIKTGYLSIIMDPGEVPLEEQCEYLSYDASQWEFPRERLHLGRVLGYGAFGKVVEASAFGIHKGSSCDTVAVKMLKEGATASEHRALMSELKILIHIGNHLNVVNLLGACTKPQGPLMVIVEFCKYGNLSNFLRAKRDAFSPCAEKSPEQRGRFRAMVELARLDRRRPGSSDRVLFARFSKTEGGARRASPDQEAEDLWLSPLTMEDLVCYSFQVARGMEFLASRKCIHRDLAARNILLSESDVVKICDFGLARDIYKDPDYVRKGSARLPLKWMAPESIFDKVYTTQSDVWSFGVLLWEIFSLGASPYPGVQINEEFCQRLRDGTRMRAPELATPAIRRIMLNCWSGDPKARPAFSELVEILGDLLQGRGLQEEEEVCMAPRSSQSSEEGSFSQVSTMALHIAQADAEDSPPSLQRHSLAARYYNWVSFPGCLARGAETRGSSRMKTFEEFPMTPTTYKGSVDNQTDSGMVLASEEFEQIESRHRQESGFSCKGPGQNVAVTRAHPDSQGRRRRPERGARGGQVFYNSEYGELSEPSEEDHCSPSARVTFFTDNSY", "in_short": "as §1"}, "PRKD2": {"biological_target": "T11, PRKD2 (Homo sapiens, UniProt Q9BZL6)", "T11 construct": "purchased DiscoveRx Corporation (KinomeScan)", "in_short": "as §1"}, "CAMKK2": {"biological_target": "T12, CAMKK2 (Homo sapiens, UniProt Q96RR4)", "T12 construct": "purchased DiscoveRx Corporation (KinomeScan)", "in_short": "as §1"}, "LTK": {"biological_target": "T13, LTK (Homo sapiens, UniProt P29376)", "T13 construct": "purchased DiscoveRx Corporation (KinomeScan)", "T13 sequence (P29376 17-864)": "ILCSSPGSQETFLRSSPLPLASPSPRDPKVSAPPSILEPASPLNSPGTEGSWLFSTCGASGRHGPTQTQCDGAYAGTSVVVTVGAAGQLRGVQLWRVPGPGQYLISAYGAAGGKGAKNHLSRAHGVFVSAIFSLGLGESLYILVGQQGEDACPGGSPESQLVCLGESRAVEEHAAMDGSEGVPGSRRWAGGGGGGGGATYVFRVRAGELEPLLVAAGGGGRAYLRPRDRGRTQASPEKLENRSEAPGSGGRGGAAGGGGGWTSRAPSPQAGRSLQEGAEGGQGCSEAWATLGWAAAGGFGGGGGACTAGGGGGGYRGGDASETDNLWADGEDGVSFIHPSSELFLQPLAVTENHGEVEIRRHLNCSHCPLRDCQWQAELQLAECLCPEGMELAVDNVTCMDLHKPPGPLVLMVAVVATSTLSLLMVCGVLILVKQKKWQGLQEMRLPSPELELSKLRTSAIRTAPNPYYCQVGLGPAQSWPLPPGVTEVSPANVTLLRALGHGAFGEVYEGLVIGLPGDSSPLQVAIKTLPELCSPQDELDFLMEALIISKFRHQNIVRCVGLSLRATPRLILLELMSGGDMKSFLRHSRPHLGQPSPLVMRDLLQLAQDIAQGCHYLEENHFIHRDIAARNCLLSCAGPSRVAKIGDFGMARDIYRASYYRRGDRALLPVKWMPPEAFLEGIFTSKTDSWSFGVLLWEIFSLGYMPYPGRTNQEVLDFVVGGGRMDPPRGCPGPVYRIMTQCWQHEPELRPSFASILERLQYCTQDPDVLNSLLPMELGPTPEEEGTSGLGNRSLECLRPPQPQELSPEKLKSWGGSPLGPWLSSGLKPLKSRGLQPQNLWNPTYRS", "in_short": "as §1"}, "DLK": {"biological_target": "T14, DLK (Homo sapiens, UniProt Q12852)", "T14 construct": "purchased DiscoveRx Corporation (KinomeScan)", "in_short": "as §1"}, "MAP3K1": {"biological_target": "T15, MAP3K1 (Homo sapiens, UniProt Q13233)", "T15 construct": "purchased DiscoveRx Corporation (KinomeScan)", "in_short": "as §1"}, "MYLK4": {"biological_target": "T16, MYLK4 (Homo sapiens, UniProt Q86YV6)", "T16 construct": "purchased DiscoveRx Corporation (KinomeScan)", "in_short": "as §1"}, "CHEK1": {"biological_target": "T17, CHEK1 (Homo sapiens, UniProt O14757)", "T17 construct": "purchased DiscoveRx Corporation (KinomeScan)", "in_short": "as §1"}, "MLCK": {"biological_target": "T18, MLCK (Homo sapiens, UniProt Q32MK0)", "T18 construct": "purchased DiscoveRx Corporation (KinomeScan)", "in_short": "as §1"}, "RIPK1": {"biological_target": "T19, RIPK1 (Homo sapiens, UniProt Q13546)", "T19 construct": "purchased DiscoveRx Corporation", "in_short": "as §1"}, "EPHB1": {"biological_target": "T20, EPHB1 (Homo sapiens, UniProt P54762)", "T20 construct": "purchased DiscoveRx Corporation (KinomeScan)", "in_short": "as §1"}, "CAMKK1": {"biological_target": "T21, CAMKK1 (Homo sapiens, UniProt Q8N5S9)", "T21 construct": "purchased DiscoveRx Corporation (KinomeScan)", "in_short": "as §1"}, "MERTK": {"biological_target": "T22, MERTK (Homo sapiens, UniProt Q12866)", "T22 construct": "purchased DiscoveRx Corporation (KinomeScan)", "T22 sequence (Q12866 21-999)": "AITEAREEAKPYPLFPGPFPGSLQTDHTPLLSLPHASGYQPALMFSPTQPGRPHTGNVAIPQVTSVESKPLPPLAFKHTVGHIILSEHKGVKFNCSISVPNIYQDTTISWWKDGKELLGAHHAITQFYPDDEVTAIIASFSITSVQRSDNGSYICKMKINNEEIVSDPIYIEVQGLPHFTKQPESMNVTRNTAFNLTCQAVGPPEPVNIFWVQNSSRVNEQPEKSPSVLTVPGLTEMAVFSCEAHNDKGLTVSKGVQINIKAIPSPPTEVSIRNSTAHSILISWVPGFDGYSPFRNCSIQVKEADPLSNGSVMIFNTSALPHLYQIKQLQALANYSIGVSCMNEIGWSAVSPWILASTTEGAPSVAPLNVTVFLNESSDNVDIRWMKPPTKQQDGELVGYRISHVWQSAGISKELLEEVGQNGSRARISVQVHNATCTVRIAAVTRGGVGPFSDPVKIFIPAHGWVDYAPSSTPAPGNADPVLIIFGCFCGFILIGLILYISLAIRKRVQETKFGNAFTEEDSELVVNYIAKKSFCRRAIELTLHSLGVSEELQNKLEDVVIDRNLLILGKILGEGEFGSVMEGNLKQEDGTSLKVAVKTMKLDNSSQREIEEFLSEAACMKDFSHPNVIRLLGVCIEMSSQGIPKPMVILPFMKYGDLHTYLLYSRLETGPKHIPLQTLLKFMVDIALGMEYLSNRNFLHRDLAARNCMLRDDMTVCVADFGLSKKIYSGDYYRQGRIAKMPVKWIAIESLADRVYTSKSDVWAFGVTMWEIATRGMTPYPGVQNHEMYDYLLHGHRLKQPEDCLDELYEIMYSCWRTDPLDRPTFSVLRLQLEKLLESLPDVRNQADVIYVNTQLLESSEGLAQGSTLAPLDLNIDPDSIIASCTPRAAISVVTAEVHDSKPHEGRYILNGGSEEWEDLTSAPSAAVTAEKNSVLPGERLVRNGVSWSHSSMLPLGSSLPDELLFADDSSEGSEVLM", "in_short": "as §1"}, "RIOK3": {"biological_target": "T23, RIOK3 (Homo sapiens, UniProt O14730)", "T23 construct": "purchased DiscoveRx Corporation", "in_short": "as §1"}, "ERN1": {"biological_target": "T24, ERN1 (Homo sapiens, UniProt O75460)", "T24 construct": "purchased DiscoveRx Corporation (KinomeScan)", "in_short": "as §1"}, "[5]": {"biological_target": "T25, ABL1(Q252H)-phosphorylated (Homo sapiens, UniProt P00519, Q252H)", "T25 construct": "purchased DiscoveRx Corporation (KinomeScan)", "in_short": "as §1"}, "DYRK2": {"biological_target": "T26, DYRK2 (Homo sapiens, UniProt Q92630)", "T26 construct": "purchased DiscoveRx Corporation (KinomeScan)", "in_short": "as §1"}, "EPHA1": {"biological_target": "T27, EPHA1 (Homo sapiens, UniProt P21709)", "T27 construct": "purchased DiscoveRx Corporation (KinomeScan)", "in_short": "as §1"}, "DYRK1B": {"biological_target": "T28, DYRK1B (Homo sapiens, UniProt Q9Y463)", "T28 construct": "purchased DiscoveRx Corporation (KinomeScan)", "in_short": "as §1"}, "SRMS": {"biological_target": "T29, SRMS (Homo sapiens, UniProt Q9H3Y6)", "T29 construct": "purchased DiscoveRx Corporation (KinomeScan)", "in_short": "as §1"}, "ULK1": {"biological_target": "T30, ULK1 (Homo sapiens, UniProt O75385)", "T30 construct": "purchased DiscoveRx Corporation (KinomeScan service)", "in_short": "as §1"}, "NIM1": {"biological_target": "T31, NIM1 (Homo sapiens, UniProt Q8IY84)", "T31 construct": "purchased DiscoveRx Corporation (KinomeScan panel)", "T31 sequence (Q8IY84 whole entry)": "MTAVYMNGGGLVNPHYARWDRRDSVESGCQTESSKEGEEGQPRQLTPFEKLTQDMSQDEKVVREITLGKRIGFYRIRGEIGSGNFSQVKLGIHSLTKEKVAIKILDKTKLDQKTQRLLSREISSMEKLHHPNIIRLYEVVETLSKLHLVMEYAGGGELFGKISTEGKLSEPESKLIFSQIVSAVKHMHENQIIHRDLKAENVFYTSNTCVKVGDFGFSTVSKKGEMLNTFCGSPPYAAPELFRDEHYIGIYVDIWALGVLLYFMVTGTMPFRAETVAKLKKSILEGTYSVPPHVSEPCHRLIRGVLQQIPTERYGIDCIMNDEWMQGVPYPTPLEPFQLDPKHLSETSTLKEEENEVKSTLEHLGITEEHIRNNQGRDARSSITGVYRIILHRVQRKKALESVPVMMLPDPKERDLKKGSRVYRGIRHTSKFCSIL", "in_short": "as §1"}, "HCK": {"biological_target": "T32, HCK (Homo sapiens, UniProt P08631)", "T32 construct": "purchased DiscoveRx Corporation (KinomeScan)", "T32 sequence (P08631 whole entry)": "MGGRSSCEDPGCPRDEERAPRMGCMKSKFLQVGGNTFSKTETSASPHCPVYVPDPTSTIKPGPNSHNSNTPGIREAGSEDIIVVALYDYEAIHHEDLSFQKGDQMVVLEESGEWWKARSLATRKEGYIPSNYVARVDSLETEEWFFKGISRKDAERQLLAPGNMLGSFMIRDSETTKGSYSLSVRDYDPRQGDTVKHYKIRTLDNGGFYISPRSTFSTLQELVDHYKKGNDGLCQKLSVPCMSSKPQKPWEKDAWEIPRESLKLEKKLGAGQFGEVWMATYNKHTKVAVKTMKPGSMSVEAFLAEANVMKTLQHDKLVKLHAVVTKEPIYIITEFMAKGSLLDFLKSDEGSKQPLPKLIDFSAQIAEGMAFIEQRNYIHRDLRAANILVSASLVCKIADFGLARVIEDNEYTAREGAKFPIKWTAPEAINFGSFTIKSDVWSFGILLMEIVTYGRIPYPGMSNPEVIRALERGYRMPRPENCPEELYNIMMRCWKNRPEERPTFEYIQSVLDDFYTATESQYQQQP", "in_short": "as §1"}, "SRC": {"biological_target": "T33, SRC (Homo sapiens, UniProt P12931)", "T33 construct": "purchased DiscoveRx Corporation (KinomeScan)", "in_short": "as §1"}, "ANKK1": {"biological_target": "T34, ANKK1 (Homo sapiens, UniProt Q8NFD2)", "T34 construct": "purchased DiscoveRx Corporation (KinomeScan)", "in_short": "as §1"}, "SNRK": {"biological_target": "T35, SNRK (Homo sapiens, UniProt Q9NRH2)", "T35 construct": "purchased DiscoveRx Corporation (KinomeScan)", "in_short": "as §1"}},
  "data": [
    {"smiles": "CCOP(=O)(CN1CCC(COc2cc3nccc(Oc4ccc(NC(=O)C5(C(=O)Nc6ccc(F)cc6)CC5)cc4F)c3cc2OC)CC1)OCC", "note": "[Example 10, N1-[4-[[7-[[1-(diethoxyphosphorylmethyl)-4-piperidinyl]methoxyl]-6-methoxyl-4-quinolyl]oxyl]-3-fluorophenyl]-N1′-(4-fluorophenyl)cyclopropane-1,1-dicarboxamide]", "values": [
      {"measurement": "% Ctrl@1000 nM", "setting": "MAP3K4", "result": 100, "unit": "% Ctrl"},
      {"measurement": "% Ctrl@1000 nM", "setting": "AURKC", "result": 66, "unit": "% Ctrl"},
      {"measurement": "% Ctrl@1000 nM", "setting": "[1]", "result": 100, "unit": "% Ctrl"},
      {"measurement": "% Ctrl@1000 nM", "setting": "CAMK4", "result": 100, "unit": "% Ctrl"},
      {"measurement": "% Ctrl@1000 nM", "setting": "[2]", "result": 3.8, "unit": "% Ctrl"},
      {"measurement": "% Ctrl@1000 nM", "setting": "[3]", "result": 70, "unit": "% Ctrl"},
      {"measurement": "% Ctrl@1000 nM", "setting": "DAPK2", "result": 100, "unit": "% Ctrl"},
      {"measurement": "% Ctrl@1000 nM", "setting": "[4]", "result": 77, "unit": "% Ctrl"},
      {"measurement": "% Ctrl@1000 nM", "setting": "EPHA2", "result": 4.8, "unit": "% Ctrl"},
      {"measurement": "% Ctrl@1000 nM", "setting": "FLT4", "result": 0.2, "unit": "% Ctrl"},
      {"measurement": "% Ctrl@1000 nM", "setting": "PRKD2", "result": 100, "unit": "% Ctrl"},
      {"measurement": "% Ctrl@1000 nM", "setting": "CAMKK2", "result": 81, "unit": "% Ctrl"},
      {"measurement": "% Ctrl@1000 nM", "setting": "LTK", "result": 26, "unit": "% Ctrl"},
      {"measurement": "% Ctrl@1000 nM", "setting": "DLK", "result": 52, "unit": "% Ctrl"},
      {"measurement": "% Ctrl@1000 nM", "setting": "MAP3K1", "result": 80, "unit": "% Ctrl"},
      {"measurement": "% Ctrl@1000 nM", "setting": "MYLK4", "result": 100, "unit": "% Ctrl"},
      {"measurement": "% Ctrl@1000 nM", "setting": "CHEK1", "result": 100, "unit": "% Ctrl"},
      {"measurement": "% Ctrl@1000 nM", "setting": "MLCK", "result": 100, "unit": "% Ctrl"},
      {"measurement": "% Ctrl@1000 nM", "setting": "RIPK1", "result": 99, "unit": "% Ctrl"},
      {"measurement": "% Ctrl@1000 nM", "setting": "EPHB1", "result": 4.6, "unit": "% Ctrl"},
      {"measurement": "% Ctrl@1000 nM", "setting": "CAMKK1", "result": 32, "unit": "% Ctrl"},
      {"measurement": "% Ctrl@1000 nM", "setting": "MERTK", "result": 2.1, "unit": "% Ctrl"},
      {"measurement": "% Ctrl@1000 nM", "setting": "RIOK3", "result": 100, "unit": "% Ctrl"},
      {"measurement": "% Ctrl@1000 nM", "setting": "ERN1", "result": 81, "unit": "% Ctrl"},
      {"measurement": "% Ctrl@1000 nM", "setting": "[5]", "result": 84, "unit": "% Ctrl"},
      {"measurement": "% Ctrl@1000 nM", "setting": "DYRK2", "result": 100, "unit": "% Ctrl"},
      {"measurement": "% Ctrl@1000 nM", "setting": "EPHA1", "result": 4.6, "unit": "% Ctrl"},
      {"measurement": "% Ctrl@1000 nM", "setting": "DYRK1B", "result": 86, "unit": "% Ctrl"},
      {"measurement": "% Ctrl@1000 nM", "setting": "SRMS", "result": 8.9, "unit": "% Ctrl"},
      {"measurement": "% Ctrl@1000 nM", "setting": "ULK1", "result": 100, "unit": "% Ctrl"},
      {"measurement": "% Ctrl@1000 nM", "setting": "NIM1", "result": 100, "unit": "% Ctrl"},
      {"measurement": "% Ctrl@1000 nM", "setting": "HCK", "result": 0.35, "unit": "% Ctrl"},
      {"measurement": "% Ctrl@1000 nM", "setting": "SRC", "result": 3.2, "unit": "% Ctrl"},
      {"measurement": "% Ctrl@1000 nM", "setting": "ANKK1", "result": 100, "unit": "% Ctrl"},
      {"measurement": "% Ctrl@1000 nM", "setting": "SNRK", "result": 100, "unit": "% Ctrl"}
    ]}
  ]
}
